USRE50319E1, “Compounds and methods for treating cancer” (Dana-Farber Cancer Institute, Inc., priority 2017, dated 2025)
Where a name gives a salt, the structure may show the parent alone.

Tests used:
POLQ = POLQ (Homo sapiens, UniProt O75417); assay: γ-32P-ATP based radiometric ATPase assay; format: biochemical; settings: for inhibition of POLQ (ATPase) activity: FIG. 2B radiometric ATPase assay
Protocol: FIG. 2C is a bar plot showing quantification of the radiometric ATPase assay showing in FIG. 2B. SMARCAL1 was used as a control ATPase to identify inhibitors that show specificity to POLQ.
100 μM novobiocin was used in the assay. MTX=Mitoxantrone; SUR=Suramin sodium salt; NVB=novobiocin; AUR=Aurintricarboxylic acid; VAND=vandetanib (EGFR inhibitor, negative control).

Alt-EJ repair pathway = assay: GFP reporter assay using EJ2 repair substrate (Alt-EJ); format: cell-based
Protocol: PARP inhibitor and ATM inhibitor were used as positive controls.
(§1) 10 μM concentration of each tested compound was used in the assay. Mitoxantrone and VAND kill cells.
(§2) 50 μM of each tested compound was used in the assay.

homologous recombination = assay: Homologous recombination repair assay; format: cell-based
Protocol: as §1, §2

[1] = test system: BRCA1-deficient (HR-deficient) tumor cells; assay: Rapid Cell Titer Glo assay; format: cell-based
[2] = test system: BRCA1-deficient tumor cells; assay: Clonogenic survival assay, BRCA1-deficient tumor cells; format: cell-based; settings: FIG. 4, versus isogenic BRCA1-proficient cell line
BRCA1−/− RPE1 cells = assay: Clonogenic survival assay, RPE1 cells; format: cell-based; settings: FIGS. 6 and 7
[3] = test system: PARP inhibitor (olaparib) resistant RPE1 cells; assay: PARP inhibitor (olaparib) resistant cell lines; format: cell-based; settings: FIG. 10
RAD51 foci = RAD51 foci formation; format: cell-based; settings: FIG. 11
yH2AX foci = yH2AX foci formation; format: cell-based; settings: FIG. 12
[4] = test system: RPE1-p53−/− BRCA1−/− cells; assay: Apoptosis, Annexin V kit; format: cell-based; settings: FIG. 13, analyzed 4 days after NVB
POLQ ATPase domain = POLQ ATPase domain (Homo sapiens, UniProt O75417); assay: Pull-down with novobiocin-conjugated sepharose beads, POLQ; format: binding; settings: FIG. 15; novobiocin conjugated to sepharose beads
Chain of POLQ ATPase domain (O75417 102-554 limits assumed): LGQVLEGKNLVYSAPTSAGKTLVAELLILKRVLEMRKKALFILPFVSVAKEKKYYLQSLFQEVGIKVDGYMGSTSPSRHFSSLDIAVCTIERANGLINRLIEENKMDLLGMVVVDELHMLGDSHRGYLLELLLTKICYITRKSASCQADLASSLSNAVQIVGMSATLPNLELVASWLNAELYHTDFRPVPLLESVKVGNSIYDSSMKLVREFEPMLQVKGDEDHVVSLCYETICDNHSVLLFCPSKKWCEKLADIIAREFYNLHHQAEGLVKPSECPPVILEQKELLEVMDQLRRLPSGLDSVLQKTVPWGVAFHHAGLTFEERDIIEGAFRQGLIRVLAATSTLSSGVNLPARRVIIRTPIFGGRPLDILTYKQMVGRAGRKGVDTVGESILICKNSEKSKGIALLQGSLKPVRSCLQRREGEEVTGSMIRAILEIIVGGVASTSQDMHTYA
Excerpt: FIG. 14 contains an image showing that novobiocin was successfully conjugated to sepharose beads.
The color in the left tube is attributed to the novobiocin bound to the beads.

Chain of POLQ (O75417 whole entry): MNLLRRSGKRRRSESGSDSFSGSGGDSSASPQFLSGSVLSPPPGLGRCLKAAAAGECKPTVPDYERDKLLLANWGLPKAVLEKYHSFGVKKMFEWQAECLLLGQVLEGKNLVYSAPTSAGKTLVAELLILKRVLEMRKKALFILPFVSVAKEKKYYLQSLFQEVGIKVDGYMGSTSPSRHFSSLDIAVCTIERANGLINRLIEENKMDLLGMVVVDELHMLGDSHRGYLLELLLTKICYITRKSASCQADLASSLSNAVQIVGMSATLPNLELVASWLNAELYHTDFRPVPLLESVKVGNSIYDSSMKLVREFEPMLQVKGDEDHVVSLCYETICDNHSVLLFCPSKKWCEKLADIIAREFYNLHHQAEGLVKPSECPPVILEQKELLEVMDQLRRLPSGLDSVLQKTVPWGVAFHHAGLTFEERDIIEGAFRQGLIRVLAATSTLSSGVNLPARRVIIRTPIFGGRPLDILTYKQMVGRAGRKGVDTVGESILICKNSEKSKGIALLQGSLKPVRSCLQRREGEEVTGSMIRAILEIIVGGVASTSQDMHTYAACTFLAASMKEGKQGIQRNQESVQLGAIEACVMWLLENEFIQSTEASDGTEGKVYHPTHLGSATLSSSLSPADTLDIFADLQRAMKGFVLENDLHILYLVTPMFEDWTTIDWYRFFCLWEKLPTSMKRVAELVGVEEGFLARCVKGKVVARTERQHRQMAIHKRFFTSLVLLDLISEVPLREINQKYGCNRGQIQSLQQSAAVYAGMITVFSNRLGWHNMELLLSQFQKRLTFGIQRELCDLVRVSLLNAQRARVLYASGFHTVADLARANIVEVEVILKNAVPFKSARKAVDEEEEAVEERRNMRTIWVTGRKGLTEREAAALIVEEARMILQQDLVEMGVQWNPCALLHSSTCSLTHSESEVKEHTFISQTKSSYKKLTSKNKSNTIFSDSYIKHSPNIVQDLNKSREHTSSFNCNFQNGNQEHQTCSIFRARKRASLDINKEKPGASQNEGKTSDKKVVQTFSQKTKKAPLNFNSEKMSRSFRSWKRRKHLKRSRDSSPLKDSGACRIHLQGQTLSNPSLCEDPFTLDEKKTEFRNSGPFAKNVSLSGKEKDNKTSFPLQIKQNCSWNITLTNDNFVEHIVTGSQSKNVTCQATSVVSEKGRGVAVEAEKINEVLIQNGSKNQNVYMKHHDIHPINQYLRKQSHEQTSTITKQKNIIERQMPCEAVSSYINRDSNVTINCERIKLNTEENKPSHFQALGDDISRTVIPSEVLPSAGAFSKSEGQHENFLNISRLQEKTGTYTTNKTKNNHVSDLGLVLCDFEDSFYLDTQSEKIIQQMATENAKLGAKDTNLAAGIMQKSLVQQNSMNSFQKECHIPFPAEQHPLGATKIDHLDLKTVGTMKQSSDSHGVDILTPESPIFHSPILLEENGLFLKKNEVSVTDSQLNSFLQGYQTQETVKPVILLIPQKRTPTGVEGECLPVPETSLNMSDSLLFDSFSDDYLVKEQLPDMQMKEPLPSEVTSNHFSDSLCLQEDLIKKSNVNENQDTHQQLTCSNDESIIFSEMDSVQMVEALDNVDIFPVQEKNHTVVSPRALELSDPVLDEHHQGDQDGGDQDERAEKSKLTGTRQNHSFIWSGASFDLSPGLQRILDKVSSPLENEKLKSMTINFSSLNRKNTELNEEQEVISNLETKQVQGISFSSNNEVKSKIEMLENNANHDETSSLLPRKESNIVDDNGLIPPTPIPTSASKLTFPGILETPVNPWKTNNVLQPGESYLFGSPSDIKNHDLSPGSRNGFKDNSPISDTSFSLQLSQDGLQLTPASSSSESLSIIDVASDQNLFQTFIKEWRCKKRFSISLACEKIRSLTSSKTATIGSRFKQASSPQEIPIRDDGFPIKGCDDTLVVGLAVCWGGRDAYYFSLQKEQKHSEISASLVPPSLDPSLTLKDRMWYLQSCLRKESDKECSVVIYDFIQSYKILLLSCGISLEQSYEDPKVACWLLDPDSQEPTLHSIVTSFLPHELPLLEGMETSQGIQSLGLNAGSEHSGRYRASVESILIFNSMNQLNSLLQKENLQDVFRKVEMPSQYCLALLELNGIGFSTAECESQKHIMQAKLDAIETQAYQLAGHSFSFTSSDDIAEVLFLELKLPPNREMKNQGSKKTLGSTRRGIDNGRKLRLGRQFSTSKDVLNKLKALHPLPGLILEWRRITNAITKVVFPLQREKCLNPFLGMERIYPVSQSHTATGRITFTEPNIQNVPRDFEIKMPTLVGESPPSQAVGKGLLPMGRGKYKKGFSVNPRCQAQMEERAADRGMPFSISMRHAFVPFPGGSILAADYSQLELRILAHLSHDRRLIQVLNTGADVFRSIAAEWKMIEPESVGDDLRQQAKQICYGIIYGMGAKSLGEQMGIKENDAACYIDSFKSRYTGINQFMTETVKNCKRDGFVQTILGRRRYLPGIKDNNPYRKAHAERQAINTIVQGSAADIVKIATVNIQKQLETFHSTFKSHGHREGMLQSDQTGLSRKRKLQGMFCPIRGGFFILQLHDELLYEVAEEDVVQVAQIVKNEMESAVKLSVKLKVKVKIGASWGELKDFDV

## O=C1c2c(O)ccc(O)c2C(=O)c2c(NCCNCCO)ccc(NCCNCCO)c21 [Mitoxantrone]
POLQ
  inhibition of POLQ (ATPase) activity: inhibited POLQ activity
Alt-EJ repair pathway; FIG. 8, 10 μM
  cell killing in the repair assay: kill cells
Alt-EJ repair pathway; FIG. 9, 50 μM
  cell killing in the repair assay: killed all cells

## Cc1ccc(C(=O)Nc2ccc(S(=O)(=O)O)c3cc(S(=O)(=O)O)cc(S(=O)(=O)O)c23)cc1NC(=O)c1cccc(NC(=O)Nc2cccc(C(=O)Nc3cc(C(=O)Nc4ccc(S(=O)(=O)O)c5cc(S(=O)(=O)O)cc(S(=O)(=O)O)c45)ccc3C)c2)c1 [S, Suramin sodium salt]
POLQ
  inhibition of POLQ (ATPase) activity: inhibited POLQ activity

## COc1cc2c(Nc3ccc(Br)cc3F)ncnc2cc1OCC1CCN(C)CC1 [VAND, vandetanib]
Alt-EJ repair pathway; FIG. 8, 10 μM
  cell killing in the repair assay: kill cells
Alt-EJ repair pathway; FIG. 9, 50 μM
  cell killing in the repair assay: killed all cells

## CO[C@@H]1[C@@H](OC(N)=O)[C@@H](O)[C@H](Oc2ccc3c(O)c(NC(=O)c4ccc(O)c(CC=C(C)C)c4)c(=O)oc3c2C)OC1(C)C [novobiocin]
POLQ; listed as N
  inhibition of POLQ (ATPase) activity: inhibited POLQ activity
POLQ; listed as Novobiocin
  inhibition of POLQ (ATPase) activity: inhibits the ATPase of POLQ
POLQ; FIG. 2C, SMARCAL1 used as control ATPase
  specificity to POLQ: showed some specificity to POLQ
POLQ; FIG. 5, 32P-based ATPase activity assay, 100 μM novobiocin
  inhibition of ATPase activity of POLQ: specifically inhibits ATPase activity of POLQ
POLQ; versus ATPase activity of SMARCA or CHD1
  POLQ ATPase inhibition compared with related ATPases: inhibits the POLQ ATPase more strongly than it inhibits the ATPase activity of SMARCA or CHD1
Alt-EJ repair pathway; FIG. 2D, EJ2 repair substrate GFP reporter
  inhibition of Alt-EJ: inhibited Alt-EJ
Alt-EJ repair pathway; FIG. 8, 10 μM
  inhibition of alternative end-joining: inhibits alternative end-joining
Alt-EJ repair pathway; FIG. 9, 50 μM
  inhibition of alternative end-joining: inhibits alternative end-joining
Homologous recombination; FIG. 8, 10 μM
  inhibition of homologous recombination: not homologous recombination
Homologous recombination; FIG. 9, 50 μM
  inhibition of homologous recombination: not homologous recombination
[1]; FIG. 3
  selective killing of BRCA1-deficient (HR-deficient) tumor cells: selectively kills BRCA1-deficient (HR-deficient) tumor cells
[1]; FIG. 3, listed as Novobiocin
  selective killing of BRCA1-deficient (HR-deficient) tumor cells: selectively kills HR-deficient cells as strongly as PARP inhibitor
[2]
  selective killing of BRCA1-deficient tumor cells: selectively kills the BRCA1-deficient tumor cells
[2]; listed as Novobiocin
  selective killing of BRCA1-deficient tumor cells: selectively kills BRCA1-deficient tumor cells
BRCA1−/− RPE1 cells
  specific killing of BRCA1−/− RPE1 cells: specifically kills BRCA1−/− RPE1 cells
[3]
  killing of PARP inhibitor resistant RPE1 cells: kills RPE1 cells that are resistant to the PARP inhibitor
RAD51 foci
  RAD51 foci formation: induces RAD51 and yH2AX foci formation
yH2AX foci
  yH2AX foci formation: induces RAD51 and yH2AX foci formation
[4]
  induction of apoptosis: induces apoptosis specifically in RPE1-p53−/− BRCA1−/− cells
POLQ ATPase domain
  binding / pull-down of POLQ ATPase domain: specifically binds to POLQ ATPase domain

## O=C(c1cc(Cc2n[nH]c(=O)c3ccccc23)ccc1F)N1CCN(C(=O)C2CC2)CC1 [olaparib]
[1]; FIG. 3
  selective killing of BRCA1-deficient (HR-deficient) tumor cells: selectively kills BRCA1-deficient (HR-deficient) tumor cells
